Data as given in patent US11440913B2, “Aminoimidazopyridazines as kinase inhibitors” (BRISTOL-MYERS SQUIBB COMPANY, priority 2017, dated 2022).
pIC50: −log10 of the molar value. Counter-ions that a name gives are not always drawn. Like-named read-outs stand apart in the source and are kept apart here.

What was measured:
[1] = biological target: His-GST-TVMV-hRIPK1(1-324) (Homo sapiens (Human), UniProt Q13546); experiment: RIPK1 HTRF Binding Assay; settings: HTRF binding, 1 h at rt; read-out: RIPK1 (IC50)
Sequence of His-GST-TVMV-hRIPK1(1-324) (Q13546 1-324): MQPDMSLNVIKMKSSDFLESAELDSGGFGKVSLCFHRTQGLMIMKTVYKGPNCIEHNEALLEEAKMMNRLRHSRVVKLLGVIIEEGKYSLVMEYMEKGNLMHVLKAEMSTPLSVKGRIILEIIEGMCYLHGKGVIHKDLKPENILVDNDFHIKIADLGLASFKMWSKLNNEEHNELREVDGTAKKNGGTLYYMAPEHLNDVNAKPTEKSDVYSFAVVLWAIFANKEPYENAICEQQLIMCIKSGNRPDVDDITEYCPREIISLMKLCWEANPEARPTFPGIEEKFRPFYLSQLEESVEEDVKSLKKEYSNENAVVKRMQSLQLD
Outline: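 HTRF probe-displacement binding: 1 nM His-GST-TVMV-hRIPK1(1-324) (baculovirus construct), 90.6 nM probe, 0.2 nM anti-GST-Tb in 20 mM HEPES, 10 mM MgCl2, 0.015% Brij-35, 4 mM DTT, 0.05 mg/mL BSA. Incubated 1 h at rt; FRET 520/495 nm ratio, inhibition relative to DMSO-only wells.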

[2] = tested on: MLKL phosphorylation in HT29-L23 human colorectal adenocarcinoma cells; experiment: MLKL Phosphorylation High-Content Assay; type: cell-based; settings: 6 h, necroptosis induced with TNFα, SMAC mimetic and Z-VAD, read-out: pMLKL (IC50)
Outline: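 HT29-L23 cells pretreated 30 min at 37 °C with compound (6.25 to 0.106 μM final), then necroptosis induced with TNFα 35 ng/mL, SMAC mimetic 700 nM and Z-VAD 140 nM for 6 h. Fixed cells immunostained for MLKL pS358 and imaged; IC50 and Ymax from 4-parameter logistic fit.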

Molecule | pIC50 [1] | pIC50 ([2]; Homo sapiens) | pIC50 [2]
CC(=O)Nc1cn2nc(-c3cnc(C)c(C(=O)N4CCCC(O)(Cc5ccc(F)cc5)C4)c3)ccc2n1 (centres unmarked) [Example 357, N-[6-(5-{3-[(4-fluorophenyl)methyl]-3-hydroxypiperidine-1-carbonyl}-6-methylpyridin-3-yl)imidazo[1,2-b]pyridazin-2-yl] acetamide] | 6.47 | 6.66 | –
COc1ncc(-c2ccc3nc(NC(C)=O)cn3n2)cc1C(=O)NCc1ccccc1CN1CCOCC1 [Example 113, 5-{2-acetamidoimidazo[1,2-b]pyridazin-6-yl}-2-methoxy-N-({2-[(morpholin-4-yl)methyl]phenyl}methyl)pyridine-3-carboxamide, 2 TFA] | 7.42 | – | 6.53
CC(=O)Nc1cn2nc(-c3cnc(C)c(C(=O)NC(C)c4cc(OC(F)(F)F)ccc4F)c3)ccc2n1 (single isomer, unassigned) [Example 9-1, 5-(2-acetamidoimidazo[1,2-b]pyridazin-6-yl)-N-(1-(2-fluoro-5-(trifluoromethoxy)phenyl)ethyl)-2-methylnicotinamide] | 7.60 | 7.60 | –
CCC(=O)Nc1cn2nc(-c3cnc(OC)c(C(=O)NCc4cc(F)cc(F)c4OC4CCOCC4)c3)ccc2n1 [Example 247, N-{[3,5-difluoro-2-(oxan-4-yloxy)phenyl]methyl}-2-methoxy-5-{2-propanamidoimidazo[1,2-b]pyridazin-6-yl}pyridine-3-carboxamide] | 8.70 | 8.70 | –
CC(=O)Nc1cn2nc(-c3cc(C(=O)NCc4cc(F)cc(F)c4O[C@H]4CCOC4)c(C)nc3C)ccc2n1 [Example 60, N-({3,5-difluoro-2-[(3S)-oxolan-3-yloxy]phenyl}methyl)-5-{2-acetamidoimidazo[1,2-b]pyridazin-6-yl}-2,6-dimethylpyridine-3-carboxamide] | 8.22 | 7.59 | –
[2H]C([2H])([2H])[C@@H](NC(=O)c1cnc(C)c(-c2ccc3nc(NC(C)=O)cn3n2)c1)c1cc(OC(F)(F)F)ccc1F [Example 229, 5-{2-acetamidoimidazo[1,2-b]pyridazin-6-yl}-N-[(1R)-1-[2-fluoro-5-(trifluoromethoxy)phenyl] (2,2,2-deutero)ethyl]-6-methylpyridine-3-carboxamide] | 6.87 | 6.36 | –
CC(=O)Nc1cn2nc(-c3ccc(C)c(C(=O)NCc4ccc(F)cc4C(=O)N4CCC(F)(F)C4)c3)ccc2n1 [Example 405, N-{[2-(3,3-difluoropyrrolidine-1-carbonyl)-4-fluorophenyl]methyl}-5-{2-acetamidoimidazo [1,2-b]pyridazin-6-yl}-2-methylbenzamide] | 7.85 | 7.00 | –
CC(=O)Nc1cn2nc(-c3cc(C(=O)NCc4cc(OC(F)(F)F)ccc4F)ccc3F)ccc2n1 [Example 432, 3-{2-acetamidoimidazo [1,2-b]pyridazin-6-yl}-4-fluoro-N-{[2-fluoro-5-(trifluoromethoxy)phenyl]methyl} benzamide] | 7.44 | 6.83 | –
N-[(1R)-1-[2-fluoro-5- (trifluoromethyl)- phenyl]ethyl]-2- methyl-5-(2-{2-[4- (trifluoromethyl)piperidin-1- yl]acetamido}imidazo[1,2- b]pyridazin-6-yl)pyridine-3- carboxamide [Example 331] | 7.38 | – | 7.17
[2H]C([2H])([2H])[C@H](NC(=O)c1ccc(C)c(-c2ccc3nc(NC(C)=O)cn3n2)c1F)c1cc(OC(F)(F)F)ccc1F [Example 429, 3-{2-acetamidoimidazo [1,2-b]pyridazin-6-yl}-2-fluoro-N-[(1S)-1-[2-fluoro-5-(trifluoromethoxy)phenyl](2,2,2-Â^2Hâ,f)ethyl]-4-methylbenzamide] | 8.05 | 7.70 | –
CC(=O)Nc1cn2nc(-c3cc(C(=O)NCc4ccccc4OCC4CCCC4)c(C)nc3C)ccc2n1 [Example 85, N-{[2-(cyclopentylmethoxy)phenyl]methyl}-5-{2-acetamidoimidazo[1,2-b]pyridazin-6-yl}-2,6-dimethylpyridine-3-carboxamide] | 8.40 | 7.92 | –
COc1ncc(-c2ccc3nc(NC(C)=O)cn3n2)cc1C(=O)NC(C)c1ccccc1OC(F)(F)F (centres unmarked) [Example 137, 5-{2-acetamidoimidazo[1,2-b]pyridazin-6-yl}-2-methoxy-N-{1-[2-(trifluoro-methoxy)phenyl]ethyl}pyridine-3-carboxamide] | 8.15 | 7.85 | –
COc1ncc(-c2ccc3nc(NC(C)=O)cn3n2)cc1C(=O)N[C@H](C)c1cc(C(F)(F)F)ccc1F [Example 107, 5-{2-acetamidoimidazo[1,2-b]pyridazin-6-yl}-N-[(1R)-1-[2-fluoro-5-(trifluoromethyl)phenyl](2,2,2-deutero)ethyl]-2-methoxypyridine-3-carboxamide] | 6.71 | – | 6.51
[2H]C([2H])(Oc1c(F)cc(F)cc1CNC(=O)c1cc(-c2ccc3nc(NC(C)=O)c(C)n3n2)cnc1OC)C1CC1 [Example 259, N-({2-[cyclopropyl(deutero)methoxy]-3,5-difluorophenyl}methyl)-5-{2-acetamido-3-methylimidazo[1,2-b]pyridazin-6-yl}-2-methoxypyridine-3-carboxamide] | 8.52 | 7.89 | –
CCC(=O)Nc1cn2nc(-c3cnc(OC)c(C(=O)NCc4cc(OC(F)(F)F)ccc4F)c3)ccc2n1 [Example 10, N-{[2-fluoro-5-(trifluoromethoxy)phenyl]methyl}-2-methoxy-5-{2-propanamidoimidazo[1,2-b]pyridazin-6-yl}pyridine-3-carboxamide] | 7.96 | 7.48 | –
Cc1ncc(-c2ccc3nc(NC(=O)CN)cn3n2)cc1C(=O)N[C@H](C)c1cc(OC(F)(F)F)ccc1F [Example 341, 5-[2-(2-aminoacetamido)-imidazo[1,2-b]pyridazin-6-yl]-N-[(1R)-1-[2-fluoro-5-(trifluoromethoxy)-phenyl]ethyl]-2-methylpyridine-3-carboxamide] | 7.04 | 6.31 | –
COc1ncc(-c2ccc3nc(NC(C)=O)cn3n2)cc1C(=O)NCc1c(F)ccc(F)c1OCC1CC1 [Example 127, N-{[2-(cyclopropylmethoxy)-3,6-difluorophenyl]methyl}-5-{2-acetamidoimidazo[1,2-b]pyridazin-6-yl}-2-methoxypyridine-3-carboxamide] | 8.40 | 7.48 | –
[2H]C([2H])([2H])Oc1ncc(-c2ccc3nc(NC(C)=O)cn3n2)cc1C(=O)NC(C)c1ccccc1OC(F)(F)F (centres unmarked) [Example 57, 5-{2-acetamidoimidazo[1,2-b]pyridazin-6-yl}-2-(D3)methoxy-N-{1-[2-(trifluoromethoxy)phenyl]eth-yl}pyridine-3-carboxamide] | 8.00 | – | 7.60
CC(=O)Nc1cn2nc(-c3cnc(C)c(C(=O)NCc4cc(F)cc(F)c4OC4CCOCC4)c3)ccc2n1 [Example 201, N-{[3,5-difluoro-2-(oxan-4-yloxy)phenyl]methyl}-5-{2-acetamidoimidazo[1,2-b]pyridazin-6-yl}-2-methylpyridine-3-carboxamide] | 8.22 | 8.00 | –
CC(=O)Nc1cn2nc(-c3cnc(C)c(C(=O)NCc4ccccc4OCC(F)(F)F)c3)ccc2n1 [Example 193, 5-{2-acetamidoimidazo[1,2-b]pyridazin-6-yl}-2-methyl-N-{[2-(2,2,2-trifluoroethoxy)phenyl]methyl}pyridine-3-carboxamide] | 7.25 | 7.21 | –
CC(=O)Nc1nc2ccc(-c3cnc(C)c(C(=O)NCc4cc(C(F)(F)F)ccc4F)c3)nn2c1C [Example 252, 5-{2-acetamido-3-methylimidazo[1,2-b]pyridazin-6-yl}-N-{[2-fluoro-5-(trifluoromethyl)phenyl]methyl}-2-methylpyridine-3-carboxamide] | 7.57 | 6.88 | –
CC(=O)OCC(=O)Nc1cn2nc(-c3cnc(C)c(C(=O)N[C@H](C)c4cc(OC(F)(F)F)ccc4F)c3)ccc2n1 [Example 342, {[6-(5-{[(1R)-1-[2-fluoro-5-(trifluoromethoxy)-phenyl]ethyl]-carbamoyl}-6-methylpyridin-3-yl)imidazo[1,2-b]pyridazin-2-yl]carbamoyl}-methyl acetate] | 7.89 | 6.85 | –
CC(=O)Nc1cn2nc(-c3cnc(C)c(C(=O)NCc4cc(F)cc(OC(F)(F)F)c4)c3)ccc2n1 [Example 207, 5-{2-acetamidoimidazo[1,2-b]pyridazin-6-yl}-N-{[3-fluoro-5-(trifluoromethoxy)phenyl]methyl}-2-methylpyridine-3-carboxamide, TFA] | 7.54 | 7.04 | –
COc1ncc(-c2ccc3nc(NC(=O)CO)cn3n2)cc1C(=O)NCc1cc(OC(F)(F)F)ccc1F [Example 35, N-{[2-fluoro-5-(trifluoromethoxy)phenyl]methyl}-5-[2-(2-hydroxyacetamido)imidazo[1,2-b]pyridazin-6-yl]-2-methoxypyridine-3-carboxamide] | 7.60 | 6.89 | –
COCC(=O)Nc1cn2nc(-c3cnc(OC)c(C(=O)NCc4cc(OC(F)(F)F)ccc4F)c3)ccc2n1 [Example 262, N-{[2-fluoro-5-(trifluoromethoxy)phenyl]methyl}-2-methoxy-5-[2-(2-methoxyacetamido)imidazo[1,2-b]pyridazin-6-yl]pyridine-3-carboxamide] | 7.41 | 7.13 | –
